Measurements taken from ChEMBL document CHEMBL1201862, “PubChem BioAssay data set” (2004).
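Protocol summary: plate cells (96-well), add compound at 5 concentrations, incubate 48 h, interpolate endpoints linearly. At the GI50, growth is halved.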 The source made the active and inactive calls. No stated cut-off is given here; in the data, active = GI50 up to about 1.1 µM and inactive = higher.

Tests used:
Assay in all cases: DTP human tumour cell line panel, 48 h
[1] = system: SNB-19
[2] = system: SR
[3] = system: PC-3
[4] = system: M14
[5] = system: MOLT-4
[6] = system: NCI-H226
[7] = system: EKVX
[8] = system: HOP-62
[9] = system: SK-MEL-2
[10] = system: MDA-MB-231
[11] = system: HOP-92
[12] = system: RPMI-8226
[13] = system: A498
[14] = system: UACC-62
[15] = system: CCRF-CEM
[16] = system: LOX IMVI
[17] = system: COLO 205
[18] = system: HT-29
[19] = system: HCT-116
[20] = system: NCI-H522

Measured: GI50

CN(C)CCCn1c(-c2ccc(Br)cc2)cs/c1=N\c1ccccc1
inactive: [1] 14.5 µM | [2] 14 µM | [3] 11.2 µM | [4] 12.6 µM | [5] 15.4 µM | [6] 13.2 µM | [7] 10.8 µM | [8] 12.9 µM | [9] 15.7 µM | [10] 15.1 µM | [11] 15.2 µM | [12] 12.6 µM | [13] 8.75 µM | [14] 13.7 µM | [15] 28.8 µM

CCOC(O)C(F)(F)F (stereo unspecified)
inactive: [16] > 100 µM | [1] > 100 µM | [17] > 100 µM | [2] > 100 µM | [3] > 100 µM | [4] > 100 µM | [5] > 100 µM | [6] > 100 µM | [18] > 100 µM | [10] > 100 µM | [11] > 100 µM | [19] > 100 µM | [15] > 100 µM

Cn1c(=O)n2n(c1=O)C(C)(C13CC4CC(CC(C4)C1)C3)C13CC4CC(CC1C4)CC23 (stereo unspecified)
inactive: [1] > 100 µM | [17] > 100 µM | [2] > 100 µM | [3] > 100 µM | [4] > 100 µM | [5] 89.9 µM | [6] > 100 µM | [7] > 100 µM | [8] > 100 µM | [18] > 100 µM | [9] > 100 µM | [10] > 100 µM | [11] > 100 µM | [12] > 100 µM | [13] > 100 µM | [14] > 100 µM | [15] > 100 µM

CCOC(=O)c1csc(NC(=O)CCN2CCN(C)CC2)n1
inactive: [16] > 100 µM | [1] > 100 µM | [17] > 100 µM | [2] 74.3 µM | [3] > 100 µM | [4] > 100 µM | [5] 65.5 µM | [6] > 100 µM | [8] > 100 µM | [18] 62.1 µM | [9] > 100 µM | [10] > 100 µM | [11] > 100 µM | [12] 55.3 µM | [13] > 100 µM | [14] > 100 µM | [15] 54.8 µM

O=C1CC2(CCC(O)(c3ccc4ccccc4c3)C(C(=O)c3ccc4ccccc4c3)C2)C(=O)c2ccccc2N1 (stereo unspecified)
inactive: [16] > 100 µM | [1] > 100 µM | [17] > 100 µM | [2] > 100 µM | [3] 4.27 µM | [4] 53.1 µM | [5] 8.93 µM | [6] > 100 µM | [7] > 100 µM | [8] > 100 µM | [18] > 100 µM | [9] > 100 µM | [10] > 100 µM | [11] 5.69 µM | [19] > 100 µM | [13] > 100 µM | [14] > 100 µM | [15] > 100 µM

CCCC(=O)Nc1cc2c3c(c1)CCCN3CCC2
inactive: [16] > 10 µM | [1] > 10 µM | [17] > 10 µM | [2] > 10 µM | [3] > 10 µM | [4] > 10 µM | [8] > 10 µM | [18] > 10 µM | [20] > 10 µM | [10] > 10 µM | [11] > 10 µM | [12] > 10 µM | [19] > 10 µM | [14] > 10 µM | [15] > 10 µM

COc1ccc(C2C3CCc4ccccc4C3=NN2S(=O)(=O)c2cccc(C(=O)O)c2OC)cc1 (stereo unspecified)
inactive: [16] 12.7 µM | [1] 25.4 µM | [17] 1.84 µM | [2] 3.8 µM | [3] 9.02 µM | [4] 15.8 µM | [5] 9.02 µM | [6] 19.8 µM | [7] 15 µM | [8] 21 µM | [18] 5 µM | [20] 3.19 µM | [9] 15.7 µM | [10] 10.4 µM | [11] 15.7 µM | [12] 9.55 µM | [19] 10.3 µM | [14] 6.14 µM | [15] 10.4 µM

CN(C)c1cccc2c1C(=O)C=CC21CCc2ccc(N(C)C)c3c(N(C)C)ccc1c23 (stereo unspecified)
inactive: [16] 15.1 µM | [1] 15.2 µM | [17] 15.1 µM | [2] 12 µM | [3] 11.6 µM | [4] 14.2 µM | [5] 12 µM | [6] 17.1 µM | [7] 20 µM | [8] 14.5 µM | [18] 13.1 µM | [10] 13.6 µM | [11] 12.3 µM | [12] 16.9 µM | [19] 10.9 µM | [13] 4.47 µM | [14] 12.9 µM | [15] 6.41 µM

Cc1c(Cc2ccccc2)n(COCCCO)c(=O)[nH]c1=O
inactive: [16] > 100 µM | [1] > 100 µM | [17] > 100 µM | [3] > 100 µM | [4] > 100 µM | [5] > 100 µM | [6] > 100 µM | [7] > 100 µM | [8] > 100 µM | [18] > 100 µM | [20] > 100 µM | [9] > 100 µM | [10] > 100 µM | [11] > 100 µM | [12] > 100 µM | [19] > 100 µM | [13] > 100 µM | [14] > 100 µM | [15] > 100 µM
